From patent US6552001B1, “Method breeding and feeds” (Takara Shuzo Co., Ltd., priority 1998, dated 2003)

How the values were obtained:
Assay type in all cases: in vivo
[1] = single oral administration to a mouse, death; conditions: single dosage of 100 mg/kg
lymphocystis disease [2] = assay: soaking plus feed for bastard halibuts with lymphocystis disease cultured on land (Example 1); conditions: fishes without lymphocystis disease (preventive)
Description: Then, the water was replaced with seawater. A feed for diseased bastard halibuts was prepared by adding 7 kg of the heat treatment product of alginic acid to 134 kg of the moist feed as shown in Table 1 below. The feed was given to the soaked bastard halibuts twice a day such that the heat treatment product of alginic acid was given at 0.78 g/kg/day.

white-mouth disease = assay: feed for tiger globefishes with white-mouth disease (Example 4); conditions: fishes without infection similarly treated
Description: A feed containing the heat treatment product of alginic acid to be given a day to 2000 tiger globefishes (average body weight: 450 g) suffered from white-mouth disease during culturing in sea was prepared upon use as follows. 1.11 kg of the heat treatment product of alginic acid as described in Referential Example 1-(1) was dissolved in water to a volume of 1.5 l. 10 kg of dry pellet feed (Otohime for globefish: Nisshin Flour Milling) was soaked with the solution. The entire feed was given to the fishes once a day such that 20 mg/kg body weight/day of cyclopentenone was given (group administered with the feed containing the heat treatment product of alginic acid).
As a control, 10 kg of the dry pellet feed (otohime for globefish: Nisshin Flour Milling) was given to 2000 tiger globefishes with white-mouth disease (average body weight: 450 g) once a day (control group)

lymphocystis disease [3] = assay: feed for bastard halibuts with lymphocystis disease cultured in sea (Example 2); conditions: fishes without infection similarly treated
Description: A feed for young bastard halibuts (average body weight: 350 g) suffered from lymphocystis disease during culturing in sea was prepared by adding 3 kg of the heat treatment product of alginic acid as described in Referential Example 1-(1) to 136 kg of the moist feed as shown in Table 2 below. The feed was given to the fishes once in two days such that the heat treatment product of alginic acid was given at 1.2 g/kg/feeding.

gliding bacteria disease = assay: young bastard halibuts with gliding bacteria disease, soaking or feed (Example 3); conditions: fishes without infection similarly treated
Description: Young bastard halibuts with gliding bacteria disease (body weight: about 4 g) cultured on land were divided into four groups. Effect of the heat treatment product of alginic acid as described in Referential Example 1-(1) on gliding bacteria disease was examined.
Control group: 2400 young bastard halibuts were fed with commercially available dry pellets (Otohime No. 4: Nisshin Flour Milling) once a day. They were bred in a 25000-l seawater tank.
Soaked group: A water tank for soaking was prepared by adding 880 g of the heat treatment product of alginic acid to 400 l of seawater and starting oxygen supply. 2375 young bastard halibuts were distributed in baskets such that several hundreds of the fishes were contained in a basket. They were soaked in the water tank for soaking for 30 minutes. After soaking, they were bred in a 25000-l seawater tank being fed with commercially available dry pellets once a day.
Group administered with the heat treatment product of alginic acid (1): 2380 young bastard halibuts were bred in a 25000-l seawater tank being fed once a day with a feed prepared by adding 500 g of the heat treatment product of alginic acid to 78 kg of a moist feed as shown in Table 3 below. […]

SMILES: O=C1C=CC(O)C1O (centres unmarked) [cyclopentenone, 4,5-dihydroxy-2-cyclopenten-1-one]
- death [1]: No death
- occurrence of lymphocystis disease (lymphocystis disease [2]): no occurrence
- occurrence of infection (white-mouth disease): no occurrence of infection
- occurrence of infection (lymphocystis disease [3]): no occurrence of infection
- occurrence of infection (gliding bacteria disease): no occurrence of infection
